Legend:
Format in all cases: in vivo
Oilseed rape [1] = experiment: Phosphorus content of oil, oilseed rape treated with metconazole, pressing with normal pressure (DIN EN 14107); conditions: oil of rapeseed, Germany 2004/2005; spray autumn and spring, in each case 60 g active ingredient per ha; pressed under normal pressure; untreated 1.9
Procedure: (§1) Oilseed rape was grown in 2004/2005 in Germany under the usual conditions. In autumn 2004 (growth stage BBCH 14-16) and in spring 2005 (growth stage BBCH 31-51), some of the oilseed rape was treated by spraying with metconazole (employed in the form of the commercially available product Caramba®; application rate: in each case 60 g active ingredient per ha). For comparison purposes, the remainder of the oilseed rape remained untreated. The plants were harvested in summer 2005 (growth stage BBCH 92). The rapeseed was pressed with a press from Ökotec under normal pressure (nozzle 8, 40 rpm, temperature at the pressing head 60° C.), and the phosphorus content and the alkaline-earth metal content (Ca, Mg) of the resulting oil were determined in accordance with DIN EN 14107 and DIN EN 14538, respectively.

[2] = tested on: Oilseed rape cv. "Trabant"; experiment: Phosphorus content of oil, oilseed rape treated with metconazole or metconazole in combination with boscalid, pressing at high pressure (DIN EN 14107); conditions: oil of rapeseed cv. Trabant, Bothkamp 2005/2006; metconazole 60 g/ha autumn and spring, boscalid 250 g/ha at anthesis; pressed under high pressure; untreated 5.0
Procedure: Oilseed rape cv. “Trabant” was grown under the usual conditions in 2005/2006 in Germany at the Bothkamp site. In autumn 2005 (growth stage BBCH 16-18) and in spring 2006 (BBCH 31-51), some of the oilseed rape plants were treated by spraying with metconazole (employed in the form of the commercially available product Caramba®; application rate: in each case 60 g active ingredient per ha). Some other oilseed rape plants were furthermore additionally treated during anthesis (BBCH 65) by spraying with boscalid (employed in the form of the commercially available product Cantus®; application rate: 250 g active substance per ha). For comparison reasons, some of the rapeseed plants remained untreated. The plants were harvested in summer 2006 (growth stage BBCH 92). The rapeseed was pressed with a press from Ökotec under high pressure (nozzle 6, 70 rpm, temperature at the pressing head >70° C.), and the phosphorus content of the resulting oil was determined in accordance with DIN EN 14107.

Oilseed rape [3] = experiment: Alkaline-earth metal content (Ca, Mg) of oil, oilseed rape treated with metconazole, pressing with normal pressure (DIN EN 14538); conditions: oil of rapeseed, Germany 2004/2005; spray autumn and spring, in each case 60 g active ingredient per ha; pressed under normal pressure; untreated 5.7
Procedure: as §1

[4] = tested on: Oilseed rape cv. "Trabant"; experiment: Alkaline-earth metal content of oil, oilseed rape treated with metconazole, pressing with normal pressure and high pressure (DIN EN 14538)
Procedure: Oilseed rape cv. “Trabant” was grown under the usual conditions in 2005/2006 in Germany at the Bothkamp site. In autumn 2005 (growth stage BBCH 16-18) and in spring 2006 (BBCH 31-51), some of the oilseed rape plants were treated by spraying with metconazole (employed in the form of the commercially available product Caramba®; application rate: in each case 60 g active ingredient per ha). For comparison reasons, the remainder of the rapeseed plants remained untreated. The plants were harvested in summer 2006 (growth stage BBCH 92). The rapeseed was pressed with a press from Ökotec and the alkaline-earth metal content (Ca, Mg) of the resulting oil was determined as specified in DIN EN 14538. Here, part of the rapeseed was pressed under normal pressure (nozzle 8, 40 rpm, temperature at the pressing head 60° C.) and another portion under high pressure (nozzle 6, 70 rpm, temperature at the pressing head >70° C.).

[5] = tested on: Oilseed rape cv. "Lioness"; experiment: Overall contamination of oil from treated oilseed rape (DIN EN 12662); conditions: oil of rapeseed cv. Lioness, Britain 2005/2006; spray during anthesis (BBCH 61-65); normal pressure; untreated 33
Procedure: Oilseed rape cv. “Lioness” was grown in 2005/2006 in Britain under the normal conditions. During anthesis (growth stage BBCH 61-65), the rapeseed plants were treated by spraying either with boscalid (employed in the form of the commercially available product Cantus®; application rate: 250 g active substance per ha), with boscalid in combination with dimoxystrobin (employed in the form of the commercially available product Pictor®; application rate: in each case 100 g active substance per ha), with prothioconazole (employed in the form of the commercially available product Proline®; application rate: 175 g active substance per ha) or with azoxystrobin (employed in the form of the commercially available product Amistar®; application rate: 200 g active substance per ha). For comparison reasons, some of the rapeseed plants remained untreated. The plants were harvested in summer 2006 (BBCH 92). The rapeseed was pressed with a press from Ökotec under normal pressure (nozzle 8, 40 rpm, temperature at the pressing head 60° C.), and the overall contamination of the oil obtained was determined as specified in DIN EN 12662.

[6] = tested on: Oilseed rape cv. "Lioness"; experiment: Sulfur content of oil from treated oilseed rape (EN ISO 20884); conditions: oil of rapeseed cv. Lioness, Britain 2005/2006; spray during anthesis; normal pressure; untreated 4
Procedure: Oilseed rape cv. “Lioness” was grown in 2005/2006 in Britain under the normal conditions. During anthesis (growth stage BBCH 61-65), the rapeseed plants were treated by spraying either with boscalid (employed in the form of the commercially available product Cantus®; application rate: 250 g active substance per ha), with boscalid in combination with dimoxystrobin (employed in the form of the commercially available product Pictor®; application rate: in each case 100 g active substance per ha), with prothioconazole (employed in the form of the commercially available product Proline®; application rate: 175 g active substance per ha) or with azoxystrobin (employed in the form of the commercially available product Amistar®; application rate: 200 g active substance per ha). For comparison reasons, some of the rapeseed plants remained untreated. The plants were harvested in summer 2006 (BBCH 92). The rapeseed was pressed with a press from Ökotec under normal pressure (nozzle 8, 40 rpm, temperature at the pressing head 60° C.), and the sulfur content of the oil obtained was determined as specified in EN ISO 20884.

[7] = tested on: Oilseed rape cv. "Talent"; experiment: Iodine number of oil, oilseed rape treated with boscalid (EN 14111); conditions: oil of rapeseed cv. Talent, Tachenhausen 2005/2006; boscalid 250 g/ha during anthesis; normal pressure; untreated 108
Procedure: Oilseed rape cv. “Talent” was grown in 2005/2006 under the usual conditions at the Tachenhausen site in Germany. During anthesis (growth stage BBCH 61-65), the oilseed rape plants were treated by spraying with boscalid (employed in the form of the commercially available product Cantus®; application rate: 250 g active substance per ha). For comparison reasons, some of the oilseed rape plants remained untreated. The plants were harvested in summer 2006 (BBCH 92). The rapeseed was pressed with a press from Ökotec under normal pressure (nozzle 8, 40 rpm, temperature at the pressing head 60° C.), and the iodine number of the oil obtained was determined as specified in EN 14111.

[8] = tested on: Oilseed rape cv. "Talent"; experiment: Resistance to oxidation of oil, oilseed rape treated with boscalid or boscalid in combination with dimoxystrobin (DIN EN 14112); conditions: oil of rapeseed cv. Talent, Tachenhausen 2005/2006; spray during anthesis; normal pressure; untreated 9.5
Procedure: Oilseed rape cv. “Talent” was grown in 2005/2006 under the usual conditions at the Tachenhausen site in Germany. During anthesis (growth stage BBCH 61-65), the oilseed rape plants were treated by spraying either with boscalid (employed in the form of the commercially available product Cantus®; application rate: 250 g active substance per ha) or with boscalid in combination with dimoxystrobin (employed in the form of the commercially available product Pictor®; application rate: in each case 100 g active ingredient per ha). For comparison reasons, some of the oilseed rape plants remained untreated. The plants were harvested in summer 2006 (BBCH 92). The rapeseed was pressed with a press from Ökotec under normal pressure (nozzle 8, 40 rpm, temperature at the pressing head 60° C.), and the resistance to oxidation of the oil obtained was determined as specified in DIN EN 14112.

[9] = tested on: Oilseed rape cv. "Lioness"; experiment: Acid content of oil, oilseed rape treated with boscalid or boscalid in combination with dimoxystrobin (DIN EN 14104); conditions: oil of rapeseed cv. Lioness, Britain 2005/2006; spray during anthesis; normal pressure; untreated 0.41
Procedure: Oilseed rape cv. “Lioness” was grown in 2005/2006 in Britain under the normal conditions. During anthesis (growth stage BBCH 61-65), the rapeseed plants were treated by spraying either with boscalid (employed in the form of the commercially available product Cantus®; application rate: 250 g active substance per ha) or with boscalid in combination with dimoxystrobin (employed in the form of the commercially available product Pictor®; application rate: in each case 100 g active substance per ha). For comparison reasons, some of the rapeseed plants remained untreated. The plants were harvested in summer 2006 (BBCH 92). The rapeseed was pressed with a press from Ökotec under normal pressure (nozzle 8, 40 rpm, temperature at the pressing head 60° C.), and the acid content of the oil obtained was determined as specified in DIN EN 14104.

For `CC1(C)CCC(Cc2ccc(Cl)cc2)C1(O)Cn1cncn1` (stereo not drawn) [2 × metconazole, metconazole], the Phosphorus content (Oilseed rape [1]) was under 1 mg/kg, the Phosphorus content [2] was 4.0 mg/kg and the “Alkaline-earth metal content (Ca + Mg)” value (Oilseed rape [3]) was 3.9 mg/kg. For the same molecule, the “Brittleness of the seed coat” value ([4]; inferred from the more pronounced reduction of alkaline-earth metal content in high-pressure oil versus normal-pressure oil) was “appears to reduce the brittleness of the seed coat”, the “Alkaline-earth metal content (Ca + Mg) - high pressure” value ([4]; oil of rapeseed cv. Trabant, Bothkamp 2005/2006, metconazole 60 g/ha autumn and spring, high pressure (nozzle 6, 70 rpm, >70° C.), untreated 9) was 5 mg/kg and the “Alkaline-earth metal content (Ca + Mg) - normal pressure” value ([4]; oil of rapeseed cv. Trabant, Bothkamp 2005/2006, metconazole 60 g/ha autumn and spring, normal pressure (nozzle 8, 40 rpm, 60° C.), untreated 6) was 4 mg/kg.

`CO/C=C(/C(=O)OC)c1ccccc1Oc1cc(Oc2ccccc2C#N)ncn1` [Azoxystrobin, azoxystrobin] showed an Overall contamination [5] of 24 mg/kg and a Sulfur content [6] of 2 mg/kg.

`O=C(Nc1ccccc1-c1ccc(Cl)cc1)c1cccnc1Cl` [Boscalid, boscalid] was tested, and the Iodine number [7] was 105 g iodine per 100 g, the Overall contamination [5] was 20 mg/kg and the Sulfur content [6] was 2 mg/kg. The “Resistance to oxidation at 110° C.” value [8] was 9.7 h and the Acid number [9] was 0.32 mg KOH/g.

`OC(Cc1ccccc1Cl)(Cn1nc[nH]c1=S)C1(Cl)CC1` (stereo not drawn) [Prothioconazole, prothioconazole] gave an Overall contamination [5] of 22 mg/kg and a Sulfur content [6] of 2 mg/kg.

Source: patent publication US20090011937A1, “Use of Fungicides for Increasing the Quality and Optionally the Quantity of Oil-Plant Products” (priority 2006, published 2009)
